These results are taken from US20090105283A1, “3-HYDROQUINAZOLIN-4-ONE DERIVATIVES FOR USE AS STEAROYL CoA DESATURASE INHIBITORS” (priority 2007, published 2009).

This assay addresses T1, stearoyl-CoA desaturase (SCD) (Rattus norvegicus, UniProt P07308).
T1 construct: The microsomes were quickly thawed and added to assay buffer so that a concentration of 0.4 mg/ml was achieved; from tissue
T1 sequence (P07308 1-358): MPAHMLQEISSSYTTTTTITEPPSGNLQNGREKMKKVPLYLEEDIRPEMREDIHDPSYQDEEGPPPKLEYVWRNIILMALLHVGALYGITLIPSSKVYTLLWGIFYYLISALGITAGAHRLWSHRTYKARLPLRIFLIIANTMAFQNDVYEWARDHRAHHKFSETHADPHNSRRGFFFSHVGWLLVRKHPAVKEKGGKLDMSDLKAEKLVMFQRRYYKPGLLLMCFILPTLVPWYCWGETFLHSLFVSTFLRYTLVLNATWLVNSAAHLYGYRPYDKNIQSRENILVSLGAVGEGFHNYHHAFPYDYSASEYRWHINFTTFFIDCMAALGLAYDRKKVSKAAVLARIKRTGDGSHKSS
The experiment in a line: SCD assay with rat liver microsomes ([3H]stearoyl CoA, adapted from Talamo and Bloch). The assay is classed as biochemical. To be noted: Table 2 (Example 21, procedures of Example 20); rat liver microsomes, [3H]stearoyl CoA substrate. The gist of the method: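 Liver microsomes came from diet-induced male Sprague Dawley rats and were used at 0.2 mg/ml final. Assay buffer was Tris pH 7.2 with NADH, ATP, CoA, MgCl2 and 0.1% BSA. Compounds were preincubated 30 min, then reacted 45 min at room temperature with [3H]stearoyl-CoA; after TCA stop and Bio-Bead cleanup, supernatant radioactivity was counted by scintillation.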
Broadly, the IC50 is the concentration needed to halve the response being measured. `O=C(COc1ccccc1)Nc1ccc2ncn(Cc3ccc(Cl)cc3)c(=O)c2c1` [compound 5, N-(3-(4-chlorobenzyl)-4-oxo-3,4-dihydroquinazolin-6-yl)-2-phenoxyacetamide] had an IC50 of 8000 nM.

On to `CC(=O)OCC(=O)Nc1ccc2ncn(Cc3ccc(Cl)c(C(F)(F)F)c3)c(=O)c2c1` [compound 6, 2-(3-(4-chloro-3-(trifluoromethyl)benzyl)-4-oxo-3,4-dihydroquinazolin-6-ylamino)-2-oxoethyl acetate], for which the IC50 was 130 nM.

`O=C(CO)Nc1ccc2ncn(Cc3ccc(Cl)c(C(F)(F)F)c3)c(=O)c2c1` [compound 7, N-(3-(4-chloro-3-(trifluoromethyl)benzyl)-4-oxo-3,4-dihydroquinazolin-6-yl)-2-hydroxyacetamide]: the half-maximal inhibitory concentration (IC50) amounted to 190 nM.

The compound `Cc1nc2cc(NC(=O)OCc3ccccc3)ccc2c(=O)n1Cc1ccc(Cl)c(Cl)c1` [compound 8, benzyl 3-(3,4-dichlorobenzyl)-2-methyl-4-oxo-3,4-dihydroquinazolin-7-ylcarbamate] came in with an IC50 of 1200 nM.

As to `CC(c1ccc(Cl)c(Cl)c1)n1cnc2cc(NC(=O)OCc3ccccc3)ccc2c1=O` (stereo not drawn) [compound 9, benzyl 3-(1-(3,4-dichlorophenyl)ethyl)-4-oxo-3,4-dihydroquinazolin-7-ylcarbamate], the midpoint of inhibition, the IC50, lay at 290 nM.

The compound `CC(=O)OCC(=O)Nc1ccc2c(=O)n(C(C)c3ccc(Cl)c(Cl)c3)cnc2c1` (stereo not drawn) [compound 10, 2-(3-(1-(3,4-dichlorophenyl)ethyl)-4-oxo-3,4-dihydroquinazolin-7-ylamino)-2-oxoethyl acetate] gave an IC50 of 130 nM.

As for `CC(c1ccc(Cl)c(Cl)c1)n1cnc2cc(NC(=O)CO)ccc2c1=O` (stereo not drawn) [compound 11, N-(3-(1-(3,4-dichlorophenyl)ethyl)-4-oxo-3,4-dihydroquinazolin-7-yl)-2-hydroxyacetamide], the IC50 is 170 nM.

Compound `COc1cccc(Cn2cnc3ccc(NC(=O)OCc4ccccc4)cc3c2=O)c1` [compound 12, benzyl 3-(3-methoxybenzyl)-4-oxo-3,4-dihydroquinazolin-6-ylcarbamate] had an IC50 of 1400 nM.

For the compound `CC(=O)OCC(=O)Nc1ccc2ncn(Cc3ccc(F)c(Cl)c3)c(=O)c2c1` [compound 13, 2-(3-(3-chloro-4-fluorobenzyl)-4-oxo-3,4-dihydroquinazolin-6-ylamino)-2-oxoethyl acetate], 1700 nM corresponded to half-maximal inhibition (IC50).

`O=C(Nc1ccc2ncn(Cc3ccc(F)c(C(F)(F)F)c3)c(=O)c2c1)OCc1ccccc1` [compound 14, benzyl 3-(4-fluoro-3-(trifluoromethyl)benzyl)-4-oxo-3,4-dihydroquinazolin-6-ylcarbamate] returned an IC50 of 310 nM.

`CC(=O)OCC(=O)Nc1ccc2ncn(Cc3ccc(F)c(C(F)(F)F)c3)c(=O)c2c1` [compound 15, 2-(3-(4-fluoro-3-(trifluoromethyl)benzyl)-4-oxo-3,4-dihydroquinazolin-6-ylamino)-2-oxoethyl acetate]: half-maximal inhibition (IC50) required 700 nM.

With `O=C(CO)Nc1ccc2ncn(Cc3ccc(F)c(C(F)(F)F)c3)c(=O)c2c1` [compound 16, N-(3-(4-fluoro-3-(trifluoromethyl)benzyl)-4-oxo-3,4-dihydroquinazolin-6-yl)-2-hydroxyacetamide], the IC50 was 920 nM.

Consider `CC(=O)Nc1ccc2ncn(Cc3ccc(Cl)c(Cl)c3)c(=O)c2c1` [compound 17, N-(3-(3,4-dichlorobenzyl)-4-oxo-3,4-dihydroquinazolin-6-yl)acetamide], for which half-maximal inhibition (IC50) was put at 3900 nM.

`CC(=O)Nc1ccc2ncn(Cc3ccc(F)c(F)c3)c(=O)c2c1` [compound 18, N-(3-(3,4-difluorobenzyl)-4-oxo-3,4-dihydroquinazolin-6-yl)acetamide] yielded an IC50 of 26000 nM.

`CC(=O)Nc1ccc2ncn(Cc3ccc(C(F)(F)F)cc3)c(=O)c2c1` [compound 19, N-(4-oxo-3-(4-(trifluoromethyl)benzyl)-3,4-dihydroquinazolin-6-yl)acetamide] returned an IC50 of 28000 nM.
